Test results published in PMC11152041, “Tricarbonyl rhenium(I) complexes with 8-hydroxyquinolines: structural, chemical, antibacterial, and anticancer characteristics” (RSC Advances, 2024).
≈ marks a conversion by molar mass, not a printed value. Where two headings read alike, the source gives them in different places.

Columns and labels:
E. coli ATCC25922 = experiment: Broth microdilution MIC/MBC (ISO 20776-1); format: cell-based, Escherichia coli
Procedure: (§1) Bacterial strains and cell lines were obtained from the American Type Culture Collection (ATCC).[59] […] Antimicrobial activity was tested in Müeller Hinton (MH) II broth (Becton Dickinson). For anticancer activity assay, the following reagents from Merk were used: 3-(4,5-dimethylthiazol-2-yl)-2,5-diphenyltetrazolium bromide (MTT), sodium dodecyl sulfate (SDS) and HCl. The solubilized formazan product was spectrophotometrically quantified in a Power Wave XS (Bio Tek, Winooski, VT, USA) microplate reader. The HL-60 and PC-3 cells were grown in RPMI-1640 medium with stable glutamine (Biowest) supplemented with 10% (v/v) of heat-inactivated fetal bovine serum (FBS, Biowest) and 1% (v/v) of antibiotic–antimycotic solution (Biowest). The SKOV-3 cells were grown in McCoy's 5A medium with L-glutamine (Biowest) supplemented with 10% (v/v) heat-inactivated FBS, and 1% (v/v) antibiotic–antimycotic solution. The MCF-7 cells were grown in Eagle's MEM (Minimal Essential Medium) medium with stable glutamine (Biowest), supplemented with 10% (v/v) heat-inactivated FBS 1% (v/v) MEM non-essential amino acids (Biowest), 1% (v/v) antibiotic–antimycotic solution, and 1 mM sodium pyruvate (Merck). The MCF-10A cells were grown in Ham's F-12K (Kaighn's) Medium with stable glutamine (Gibco) supplemented with 5% (v/v) heat-inactivated FBS, 1% (v/v) MEM non-essential amino acids, 1% (v/v) antibiotic–antimycotic solution, 5 μg mL^−1 insulin, 0.04 μg mL^−1 hydrocortisone (Merck), and 15 ng mL^−1 human Epidermal Growth Factor (hEGF, PeproTech).
(§2) The in vitro antibacterial activity was determined according to ISO 20776-1.[88] Among the tested microorganisms were Gram-negative rods, E. coli ATCC25922 and P. aeruginosa ATCC27853, and Gram-positive cocci, S. aureus ATCC29213 and E. faecalis ATCC29212. The selected bacterial species represented the most common etiologic agents of human infections and are used for quality control of antimicrobial susceptibility testing.[89] The test procedure included the determination of MICs and MBCs of complexes and their free ligands. MIC and MBC determinations of ciprofloxacin, as the reference antibiotic, were also performed. All compounds were dissolved in DMSO to reach the maximum 512 mg L^−1 concentration. […] The assay consisted of preparing 2-fold dilutions of the substances in a liquid growth medium MH II and inoculating them with a standardized suspension of microorganisms at a McFarland density of 0.5 (≈10^8 CFU mL^−1). The culture plates were incubated at 35 °C for 24 h. The lowest concentration of the compound inhibiting visible bacterial growth was specified as MIC, and the concentration that reduced bacterial growth by >99.99% after counting live bacteria on the plates compared to the positive control was defined as MBC.

P. aeruginosa ATCC27853 = experiment: Broth microdilution MIC/MBC (ISO 20776-1); format: cell-based, Pseudomonas aeruginosa
Procedure: as §1, §2

S. aureus ATCC29213 = experiment: Broth microdilution MIC/MBC (ISO 20776-1); format: cell-based, Staphylococcus aureus
Procedure: as §1, §2

E. faecalis ATCC29212 = experiment: Broth microdilution MIC/MBC (ISO 20776-1); format: cell-based, Enterococcus faecalis
Procedure: as §1, §2

HL-60 cells = experiment: MTT cytotoxicity assay; format: cell-based, human; conditions: read-out: IC50 ± SD
Procedure: (§3) The cytotoxicities for studied compounds were evaluated against leukemia cells (HL-60), as well as ovarian (SKOV-3), prostate (PC-3), and breast (MCF-7) cancer cell lines. The potential selectivity of these compounds towards cancer cells was assessed by determination of their cytotoxicities towards breast non-cancerous cells (MCF-10A). For comparison, cisplatin was added to the cytotoxicity assays.
as §1
(§4) The cells were cultured in 96-well plates and incubated with the tested compound for 24 h and 48 h. All experiments were performed in exponentially growing cultures. The 0.03 M solutions of the compounds in DMSO were appropriately diluted using culture media. The maximal final concentration of DMSO in each well was 0.1%. The cytotoxicity of the compounds was measured by determining cell viability with a colorimetric test based on 3-(4,5-dimethylthiazol-2-yl)-2,5-diphenyltetrazolium bromide (MTT). MTT stock solution was added to each well to a final concentration of 0.5 mg mL^−1 and incubated for 4 h at 37 °C; following formazan crystals were dissolved by the addition of sodium dodecyl sulfate (SDS) solution (10% SDS in 0.001 M HCl). MTT and SDS were added directly to the cell culture. The compound's IC50 values (concentration required to reduce the viability of cells by 50% compared with the control cells) were calculated from the data obtained with the MTT assay.

MCF-7 cells = experiment: MTT cytotoxicity assay; format: cell-based, human; conditions: read-out: IC50 ± SD
Procedure: as §3, §1, §4

PC-3 cells = experiment: MTT cytotoxicity assay; format: cell-based, human; conditions: read-out: IC50 ± SD
Procedure: as §3, §1, §4

SKOV-3 cells = experiment: MTT cytotoxicity assay; format: cell-based, human; conditions: read-out: IC50 ± SD
Procedure: as §3, §1, §4

MCF-10A cells = experiment: MTT cytotoxicity assay
Procedure: as §3, §1, §4

[1] = system: solid tumor cells (SKOV-3, PC-3, MCF-7); experiment: MTT cytotoxicity assay, solid tumor cell lines taken together; format: cell-based; conditions: Homo sapiens, read-out: IC50 against solid tumor cells
Procedure: For comparison, cisplatin was added to the cytotoxicity assays.
All experiments were performed in exponentially growing cultures.

[2] = system: human cervical adenocarcinoma (HeLa) cells; conditions: cited from earlier work
[3] = Stability of the complexes in DMSO by NMR (exchange of pyrazole ligand with DMSO); format: physicochemical
Procedure: In 3, after two days, an equilibrium between the Hdmpz and DMSO complexes stabilizes at 77% to 23% ratio (Fig. S34 ^†). Complex 3 can be recovered from the mixture by DMSO evaporation and the complex with water is even weaker. In the case of 3-phenylpyrazole in 8, the complex amount drops to 50% immediately after dissolving and after 24 h reaches ratio of 39% to 61% (Fig. S35 ^†).
The chemicals were purchased from Sigma-Aldrich and only 5-chloro-8-hydroxyquinoline from TCI. Their purity was 98 or 99% (for 3-phenylpyrazole – 97%). Anhydrous solvents with HPLC grade (≥99.9%) were applied. All chemicals were used without further purification. Elemental analysis was performed on an Elementar Vario EL III analyzer. UV-Vis spectra of methanol solutions were recorded in the 200–900 nm range with a Jasco V-750 spectrometer. Infrared absorption spectra in the 400–4000 cm^−1 range were recorded with a Thermo Scientific Nicolet iS10 FT-IR spectrometer using KBr pellets. ^1H and ^13C NMR spectra of DMSO-d6 or CDCl3 solutions were recorded at 25 °C on a Varian VNMRS-500 or Varian 400MR spectrometer operated at 499.8 and 400 MHz, respectively. The NMR spectra were referenced to the internal reference of tetramethylsilane (TMS).

[4] = E. coli ATCC25922, >99.99% reduction of growth
[5] = E. coli ATCC25922, MH II broth, 35 °C, 24 h
[6] = P. aeruginosa ATCC27853, >99.99% reduction of growth
[7] = P. aeruginosa ATCC27853, MH II broth, 35 °C, 24 h
[8] = S. aureus ATCC29213, >99.99% reduction of growth
[9] = S. aureus ATCC29213, MH II broth, 35 °C, 24 h
[10] = E. faecalis ATCC29212, >99.99% reduction of growth
[11] = E. faecalis ATCC29212, MH II broth, 35 °C, 24 h
[12] = read-out: IC50 ± SD, MCF-10A (non-cancerous), 24 h, MTT, * precipitation of the complex
[13] = read-out: IC50 ± SD, MCF-10A (non-cancerous), 48 h, MTT, * precipitation of the complex

Compound | MBC (E. coli ATCC25922; [4]) | MIC (E. coli ATCC25922; [5]) | MBC (P. aeruginosa ATCC27853; [6]) | MIC (P. aeruginosa ATCC27853; [7]) | MBC (S. aureus ATCC29213; [8]) | MIC (S. aureus ATCC29213; [9]) | MBC (E. faecalis ATCC29212; [10]) [µg/mL] | MIC (E. faecalis ATCC29212; [11]) [µg/mL] | IC50 (HL-60 cells; HL-60, 24 h, MTT) [µM] | IC50 (HL-60 cells; HL-60, 48 h, MTT) [µM] | IC50 (MCF-7 cells; MCF-7, 24 h, MTT) [µM] | IC50 (MCF-7 cells; MCF-7, 48 h, MTT) [µM] | IC50 (PC-3 cells; PC-3, 24 h, MTT) [µM] | IC50 (PC-3 cells; PC-3, 48 h, MTT) [µM] | IC50 (SKOV-3 cells; SKOV-3, 24 h, MTT) [µM] | IC50 (SKOV-3 cells; SKOV-3, 48 h, MTT) [µM] | IC50 (MCF-10A cells; [12]) [µM] | IC50 (MCF-10A cells; [13]) [µM] | further results
Cc1ccc2cccc(O)c2n1 [MeHQ, 2-methyl-8-hydroxyquinoline, reference compound] |  |  |  |  |  |  |  |  |  |  |  |  |  |  |  |  |  |  | MBC (E. coli ATCC25922; Escherichia coli, ATCC25922): > 512 µg/mL; MIC (E. coli ATCC25922; Escherichia coli, ATCC25922, 24 h): 32 µg/mL (≈ 201 µM); MBC (P. aeruginosa ATCC27853; Pseudomonas aeruginosa, ATCC27853): > 512 µg/mL; MIC (P. aeruginosa ATCC27853; Pseudomonas aeruginosa, ATCC27853, 24 h): 256 µg/mL (≈ 1610 µM); MBC (S. aureus ATCC29213; Staphylococcus aureus, ATCC29213): 128 µg/mL (≈ 804 µM); MIC (S. aureus ATCC29213; Staphylococcus aureus, ATCC29213, 24 h): 32 µg/mL (≈ 201 µM); MBC (E. faecalis ATCC29212; Enterococcus faecalis, ATCC29212): 32 µg/mL (≈ 201 µM); MIC (E. faecalis ATCC29212; Enterococcus faecalis, ATCC29212, 24 h): 32 µg/mL (≈ 201 µM); IC50 (HL-60 cells; Homo sapiens, HL-60, 24 h): 27 ± 2 µM; IC50 (HL-60 cells; Homo sapiens, HL-60, 48 h): 18 ± 2 µM; IC50 (MCF-7 cells; Homo sapiens, MCF7, 24 h): > 100 µM; IC50 (MCF-7 cells; Homo sapiens, MCF7, 48 h): > 100 µM; IC50 (PC-3 cells; Homo sapiens, PC-3, 24 h): 62 ± 8 µM; IC50 (PC-3 cells; Homo sapiens, PC-3, 48 h): > 100 µM; IC50 (SKOV-3 cells; Homo sapiens, SK-OV-3, 24 h): > 100 µM; IC50 (SKOV-3 cells; Homo sapiens, SK-OV-3, 48 h): > 100 µM; IC50 (MCF-10A cells; Homo sapiens, MCF-10A, 24 h, read-out: IC50 ± SD): > 100 µM; IC50 (MCF-10A cells; Homo sapiens, MCF-10A, 48 h, read-out: IC50 ± SD): > 100 µM; IC50 [1]: > 100 µM
C1N2CN3CN1CP(C2)C3.[C-]#[O+].[C-]#[O+].[C-]#[O+].[Re][O]c1cccc2cccnc12 [[Re(CO)3(Q)(PTA)]] |  |  |  |  |  |  |  |  |  |  |  |  |  |  |  |  |  |  | cytotoxicity [2]: moderate activity
Cc1cc(C)[nH]n1.[C-]#[O+].[C-]#[O+].[C-]#[O+].[Re][O]c1cccc2cccnc12 [complex 3, [Re(CO)3(Q)Hdmpz]] | >512/>512 mg L^−1 | >512/>512 mg L^−1 | >512/>512 mg L^−1 | >512/>512 mg L^−1 | 512/>512 mg L^−1 | 512/>512 mg L^−1 | 512 | 128 | 7 ± 2 | 6 ± 1 | 19 ± 2 | 29 ± 5 | 14 ± 2 | 16 ± 2 | 32 ± 7 | 31 ± 7 | > 100 | > 100 | IC50 / activity on normal cells (MCF-10A cells; MCF-10A, incubation time not given): no activity; IC50 (MCF-10A cells; read-out: IC50 / activity on normal cells, MCF-10A, incubation time not given): > 100 µM; share of the DMSO complex at equilibrium ([3]; after two days): 23%; share of the Hdmpz complex at equilibrium with the DMSO complex ([3]; after two days): 77%
Cc1ccc2cccc([O][Re])c2n1.[C-]#[O+].[C-]#[O+].[C-]#[O+].c1ccc(-c2ccn[nH]2)cc1 [complex 8, [Re(CO)3(MeQ)HPhpz]] | >512/>512 mg L^−1 | >512/>512 mg L^−1 | >512/>512 mg L^−1 | >512/>512 mg L^−1 | > 512 µg/mL | 128 µg/mL | > 512 | 32 | 9 ± 1 | 8 ± 1 | 68 ± 4 | 53 ± 3 | 39 ± 5 | 31 ± 5 | > 100 | 41 ± 7 | 36 ± 1 | 21 ± 4 | share of the DMSO complex ([3]; after 24 h): 61%; share of the HPhpz complex ([3]; after 24 h): 39%; complex amount ([3]; immediately after dissolving): 50%
